Test results reported in patent US11129871B1, “Compositions and methods for treating and preventing endoplasmic reticulum (ER) stress-mediated kidney diseases” (Washington University, priority 2018, dated 2021).

Assays:
[1] = test system: 293T cells stably expressing SERCaMP; test: SERCaMP secretion (GLuc luciferase) assay of ER calcium depletion induced by thapsigargin; assay type: cell-based, human
Method: FIG. 11A-FIG. 11B. SERCaMP secretion is specifically triggered by ER calcium depletion. 293T cells stably expressing (A) SERCaMP or (B) control GLuc-STOP were treated with 0.1 μM TG or DMSO, for varying durations. Luciferase activity was measured in the medium (mean±SD, n=3) and normalized to the respective baseline. **P<0.01 by t-test.
RyR expression was next examined at the protein level. […] Since it has been shown that RyR2 isoform is present in the rabbit kidney cortex and its activity is modulated by phosphorylation of the channel, phosphorylation of RyR2 at Ser2808 was further examined. […] It has been shown that the carboxy-terminal sequence of an ER stress protein MANF (mesencephalic astrocyte-derived neurotrophic factor), ASARTDL (SEQ ID NO: 3), is sufficient to specifically confer ER calcium-depletion-dependent secretion. […] When human embryonic kidney (HEK) 293T cells stably expressing SERCaMP or control GLuc-STOP without the ASARTDL tag were treated with DMSO or 0.1 μM thapsigargin (TG), a SERCA inhibitor causing ER calcium depletion for 6 hours, SERCaMP secretion, as measured by luciferase activity in the cell culture medium, was increased in response to ER calcium depletion induced by TG (see e.g., FIG. 11A and FIG. 11B).

Lamb2+/- mice = test: K201 toxicity in control mice (kidney histology, BUN); assay type: in vivo, mouse; details: K201 4 weeks vs vehicle-treated control littermates
Method: FIG. 13. […] HE staining of K201 or vehicle-injected kidneys at the end of treatment.
(§1) BUN was measured by using a QuantiChrom™ urea assay kit (DIUR-500) (BioAssay Systems, Hayward, Calif.).
For light microscopy, kidneys were fixed in 4% paraformaldehyde, dehydrated through graded ethanols, embedded in paraffin, sectioned at 4 μm, and stained with Hematoxylin & Eosin (H&E) by standard methods.

[2] = test system: Tg-C321R primary podocytes; test: Cytosolic calcium levels measured by Fluo-4 AM; assay type: cell-based, mouse
Method: The cytosolic Ca^2+ levels were measured by Fluo-4 AM (Invitrogen). Primary podocytes of the indicated genotypes were plated on 6-well plates at 1×10^5 cells/well and stained with 2.5 μM Fluo-4 AM and 1 mM probenecid in the dark at 37° C. for 30 minutes. Then the cells were washed with PBS and kept in the dark for another 30 minutes to allow cleavage of intracellular AM esters. Fluorescence was measured by flow cytometer Calibur 3 (BD Biosciences, San Jose, Calif.) at the FACS core facility of Washington University School of Medicine. The results were analyzed by Cell Quest. For measuring intracellular Ca^2+ levels in primary podocytes treated with or without […] or MANF, cells were plated on 96-well plates at 0.8×10^4 cells per well and stained with Fluo-4 AM along with probenecid to enable high-throughput readout. Fluorescence was measured at excitation wavelength 485 nm and emission wavelength 528 nm by a fluorescent plate reader Synergy H1 (BioTek, Winooski, Vt.).

procaspases 12 and 3 = test: Western blot of cleaved caspase 12 and caspase 3 in podocyte lysates; assay type: cell-based, mouse; details: Tg-C321R podocytes
Method: (§2) Mouse primary podocytes and isolated glomeruli were lysed by RIPA buffer (Cell signaling) containing protease inhibitor cocktail (Sigma-Aldrich) and phosphatase inhibitor tablets (Roche, Indianapolis, Ind.). The protein concentrations of cell and glomerular lysates were determined by Bio-Rad Protein assay (Hercules, Calif.) using BSA as a standard. Denatured proteins were separated on SDS-polyacrylamide gels and then transferred to polyvinylidene difluoride membranes (Thermo Scientific). The membranes were blocked with 5% non-fat milk for 1 h and then incubated overnight with primary antibodies. Following incubation, membranes were washed with 0.1% Tris-buffered saline/Tween buffer and incubated with the appropriate HRP-conjugated secondary antibodies. The proteins were then detected using ECLplus kit (GE, Pittsburgh, Pa.) and visualized in an x-ray developer. To ensure equal protein loading, the same blot was stripped with stripping buffer (25 mM glycine and 1% SDS, pH 2.0) and then incubated with an HRP-conjugated anti-mouse β-actin antibody. Protein band intensities were quantified using Image J software (NIH, Bethesda, Md.).

primary podocytes = test: MTT cell viability assay; assay type: cell-based, mouse; details: 1-5 μM of K201
Method: The higher apoptotic rates in all groups were most likely due to the effect of DMSO.
Isolated glomeruli from Tg-WT, Tg-C321R, and Lamb2^+/− mice at P27 were plated onto collagen type I-coated culture dishes, and cultured in 5% CO2 at 37° C. in DMEM (Gibco, NY):Ham's F-12 (Lonza, NY) (2:1) that contained 3T3-L1 supernatant, 5% heat-inactivated fetal bovine serum (Gibco), 1% Insulin-Transferrin-Selenium liquid media supplement (Gibco), and 100 U/ml penicillin-streptomycin (Gibco). After 3 days, cell colonies began to sprout around the glomeruli. […] Passage 0 podocytes from the indicated genotypes were used for RNA sequencing, and passages 1 and 2 podocytes for other in vitro studies.

[3] = test system: Tg-C321R primary podocytes; test: Annexin V-FITC/PI flow cytometry of early apoptosis; assay type: cell-based, mouse
Method: Apoptotic cell death was measured by FITC Annexin V/PI apoptosis detection kit (BD Biosciences) according to the manufacturer's protocol. […] The untreated- and treated-podocytes were harvested, washed with cold PBS twice, resuspended in binding buffer, and stained with Annexin V-FITC and PI in dark at room temperature for 15 minutes. After incubation, binding buffer was added, and the podocytes were analyzed by flow cytometer Calibur 3 (BD Biosciences). Unstained cells, cells stained with FITC-Annexin V or PI alone were used as controls to set up compensation and quadrants in flow cytometry. The results were analyzed by Cell Quest program.

Tg-C321R mice = test: K201 treatment of podocyte ER stress-induced NS mouse model (urinary calpain, albuminuria, BUN); assay type: in vivo; details: for albuminuria: K201 12.5-15 mg/kg i.p.
Method: Urinary calpain activity was measured by Calpain-Glo™ Protease Assay (Promega, Madison, Wis.). In brief, urines were incubated with calpain substrate (Succinyl-LLVY-aminoluciferin). Following cleavage of substrate by calpain, the substrate for luciferase (aminoluciferin) was released, allowing the luciferase reaction to occur and luminescence to be detected by Femtomaster FB12 Luminometer. The actual values of raw light units were normalized by urine Cr for each group.
as §1
Mouse urines were collected by manual restraint or using a metabolic cage. The mouse urines were centrifuged at 1800 g for 10 minutes to remove debris before being frozen at −70° C. Urinary Cr concentration was quantified by a QuantiChrom™ creatinine assay kit (DICT-500) (BioAssay Systems) and albuminuria was measured by a QuantiChrom™ BCG albumin assay kit (DIAG-250) (BioAssay Systems).

XBP1s and ATF4 = test: Western blot of XBP1s and ATF4 in podocyte lysates; assay type: cell-based, mouse; details: MANF 5 μg/ml, 24 hours, Tg-C321R podocytes
Method: as §2

RyR2 = target: T1, RyR2 (Mus musculus, UniProt E9Q401); test: Western blot of p-RyR2 (S2808) and RyR in podocyte lysates; assay type: cell-based; details: MANF 5 μg/ml, 24 hours, Tg-C321R podocytes
T1 construct: endogenous in cells; host or cells: mouse primary podocytes from Tg-WT and Tg-C321R mice at P27

CHOP = test: Western blot of CHOP in podocyte lysates; assay type: cell-based, mouse; details: MANF 5 μg/ml, 24 hours, Tg-C321R podocytes
Method: as §2

Umod C147W/+ mice = test: DOX-induced renal tubular MANF expression in ADTKD mouse model (BUN); assay type: in vivo; details: DOX-induced tubular MANF from 6 to 24 weeks of age, TETMANF/+, P8TA vs Umod C147W/+
Method: as §1
Conditional renal tubular-specific MANF transgenic mice have been generated. TET-MANF mice were crossed with renal tubular-specific rtTA (Pax8-rtTA; P8TA) mice to generate bitransgenic TETMANF/+; P8TA mice, which were further bred to Umod C147W mice to generate Umod C147W/+; TETMANF/+; P8TA and Umod C147W/+; P8TA mice. Meanwhile, control Umod^+/+; TETMANF/+; P8TA and Umod^+/+; P8TA littermates were also generated. By administrating DOX, MANF expression was induced in renal tubules of Umod C147W/+; TETMANF/+; P8TA mice and control Umod^+/+; TETMANF/+; P8TA mice starting at 6 weeks of age until 24 weeks of age. Meanwhile, single transgenic mice including Umod C147W/+; P8TA and Umod^+/+; P8TA treated with DOX for the same duration were also included as controls.

[4] = recombinant MANF 24 h, Example 3

Molecule: COc1ccc2c(c1)CN(C(=O)CCN1CCC(Cc3ccccc3)CC1)CCS2 [K201, 4-[-3{1-(4-Benzyl)piperidinyl}propionyl]-7-methoxy-2,3,4,5-tetrahydro-1,4-benzothiazepine]
- TG-induced ER calcium depletion (SERCaMP GLuc activity in the medium) ([1]; 0.1 μM TG + 1 μM K201, 6 hours): abrogate TG-induced ER calcium depletion
- kidney histology (HE staining) (Lamb2+/- mice): no abnormality
- renal function as indicated by blood urea nitrogen (BUN) (Lamb2+/- mice): no abnormality
- podocyte ER-to-cytosol calcium leak (cytosolic calcium, Fluo-4) ([2]; 5 μM K201, 24 hours): markedly blocked
- activation of procaspases 12 and 3 (procaspases 12 and 3; 5 μM K201, 24 hours): abolished
- cell viability (MTT) (primary podocytes): non-toxic
- early apoptotic rate (Annexin V+/PI- cells) ([3]; 5 μM K201, 24 hours, DMSO control 24.73±2.22%): 15.23±2.84%
- albuminuria (Tg-C321R mice; 3 weeks post-injection, vehicle 0.137±0.037): 0.095±0.029 g/mg Cr
- albuminuria (Tg-C321R mice; 4 weeks post-injection, vehicle 0.142±0.022): 0.098±0.016 g/mg Cr
- Urinary calpain activity/Cr (Tg-C321R mice; K201 12.5-15 mg/kg i.p. once daily vs 20% HBC, from 2 weeks to 4 weeks post-treatment): dramatically decreased
- kidney function as indicated by blood urea nitrogen (BUN) (Tg-C321R mice; end of 4 weeks of injection, Tg-C321R mice): improved kidney function

Molecule: C/C=C(/C)C(=O)O[C@H]1C(C)=C2[C@H]([C@@H]1OC(=O)CCCCCCC)[C@@](C)(OC(C)=O)C[C@H](OC(=O)CCC)[C@@]1(O)[C@H]2OC(=O)[C@@]1(C)O [thapsigargin]
- SERCaMP secretion (luciferase activity in the cell culture medium) ([1]; 0.1 μM thapsigargin vs DMSO, 6 hours): increased

B1: MANF: Recombinant human MANF from R&D Systems; 18 kDa soluble ER stress inducible secreted protein (protein, UniProt P55145 25-182, looked up)
Mesencephalic …: LRPGDCEVCISYLGRFYQDLKDRDVTFSPATIENELIKFCREARGKENRLCYYIGATDDAATKIINEVSKPLAHHIPVEKICEKLKKKDSQICELKYDKQIDLSTVDLKKLRVKELKKILDDWGETCKGCAEKSDYIRKINELMPKYAPKAASARTDL
- XBP1s and ATF4 induction (XBP1s and ATF4): inhibition
- phosphorylation of ER RyR2 (S2808) (RyR2): reduced phosphorylation
- CHOP induction (CHOP): abrogated
- cytosolic calcium levels (Fluo-4) ([2]; MANF recombinant protein 5 μg/ml, 24 hours): significantly decreased
- kidney function (BUN levels) (Umod C147W/+ mice): improved the kidney function
- active cleaved caspase 12 (procaspases 12 and 3; MANF 5 μg/ml, 24 hours): suppression
- early apoptotic rate (Annexin V+/PI-) ([3]; MANF 5 μg/ml, 24 hours, untreated 17.18±0.77%): 10.09±0.51%
- early apoptosis (Annexin V+/PI- podocytes), printed as after treatment [3, 4]: 17.27%
- early apoptosis (Annexin V+/PI- podocytes), printed as before treatment [3, 4]: 10.73%
